Data as given in patent US20120219550A1, “PHARMACEUTICAL COMBINATIONS COMPRISING A PYRIDO [4,3-D] PYRIMIDINE DERIVED HSP90-INHIBITOR AND A HER2 INHIBITOR” (NOVARTIS AG, priority 2008, published 2012).

Test system: BT-474 breast cancer xenograft
Assay: Antitumor effect in BT-474 human breast carcinoma xenograft model in nude mice
Format: in vivo
Conditions: BT-474 xenograft, 21 days treatment, i.v.
Method: The estrogen receptor positive cell line BT-474 (ATCC, number HTB-20) which is a human breast carcinoma cell line is used. The cells are grown in DMEM high glucose (4.5 g/l) supplemented with 10% FCS, […] L-glutamine and 1% sodium pyruvate.
In preparation for cell inoculation, each mouse is subcutaneously implanted on the upper dorsal side with a 17β-Estradiol pellet (25 microgram/day; 90 day release) using a trocar needle. BT-474 cells (5×10̂6) are injected in 200 microliter Matrigel:HBSS (1:1 vol) (BD Matrigel™ Basement Membrane Matrix). The injection site is subcutaneously in the right flank. Treatment with compound I is initiated when the average tumor volume reached approximately 100 mm^3 Tumor growth is monitored at regular intervals. The xenograft tumor sizes is measured manually with calipers and the tumor volume is estimated using the formula: […], where width (W) and length (L) are the two largest diameters. Results are presented as mean±SEM. Tumor data are analyzed by ANOVA with post hoc Dunnet's test for comparison of treatment versus control group.
As a measure of efficacy the % T/C value is calculated at the end of the experiment according to:
(Δtumor volumetreated/Δtumor volumecontrol)*100
Where Δtumor volumes represent the mean tumor volume on the evaluation day minus the mean tumor volume at the start of the experiment.
Tumor regression is presented as the relative absolute change in tumor volume from the start to the end of the experiment (−(Tumor volumeevaluation day−Tumor volumestart day)/Tumor volumestart day*100).
The antitumor effect of compound I and trastazumab is evaluated in the BT-474 xenograft model (FIG. 1). The treatment period is 21 days and each treatment group consists of 8 tumor bearing animals. The tumor sizes in the treatment groups are compared to those of the vehicle treated groups and the effect is expressed as % T/C or regression when applicable. […] Compound I is administered i.v. once per week at a dose of 15 mg/kg.

CCNC(=O)c1noc(-c2cc(C(C)C)c(O)cc2O)c1-c1ccc(CN2CCOCC2)cc1 [Compound I, 5-(2,4-Dihydroxy-5-isopropyl-phenyl)-4-(4-morpholin-4-ylmethyl-phenyl)-isoxazole-3-carboxylic acid ethylamide]
antitumor effect in words (comparison with vehicle or single agents): no statistically significant difference from vehicle treated animals | T/C (%) (Trastuzumab 5 mg/kg 2 qw, Compound I 15 mg/kg qw, end of experiment): 96% | reduction of tumor burden (Trastuzumab 5 mg/kg twice per week, Compound I 15 mg/kg qw): 4% | ΔTumor volume (mm^3) (mean ± SEM, Trastuzumab 5 mg/kg 2 qw, Compound I 15 mg/kg qw): 929 ± 152 mm^3
